Source: patent US12435062B2, “Amide compounds and uses thereof” (HUTCHISON MEDIPHARMA LIMITED, priority 2020, dated 2025)

What was measured:
[1] = target: Recombinant human CSF1R kinase (Homo sapiens (Human), UniProt P07333); assay type: biochemical; conditions: Z-LYTE Tyr 1 peptide substrate
Method: Measurement of CSF1R Kinase Activity at Molecular Level
1. Reagents and materials:
• Z-LYTE™ Tyr 1 peptide substrate: Invitrogen, PV3190; • 5× kinase buffer: Invitrogen, PV3189; • 10 mM ATP: Invitrogen, PV3227; • Development reagent B: Invitrogen, PV3295; • Development buffer: Invitrogen, P3127; • Stopping solution: Invitrogen, P3094; • Recombinant human CSF1R kinase: Invitrogen, PR4598A; • 384 well plate, black: Corning, 3575; Envision: Perkin Elmer. 2. Preparation of reaction solutions
1) 1.33× kinase buffer: 5× kinase buffer was diluted to a 1.33× kinase buffer with ddH2O.
2) Dilution of a 4× test compound: The test compound was diluted in gradient to 4-fold the reaction concentration and the concentration of DMSO was kept at 8%. The final concentration of the compound in reaction was: 1, 0.33, 0.11, 0.037, 0.012, 0.004, 0.0014, 0.00046 μM, and the final concentration of DMSO was 2%.
3) A mixture of kinase/peptide substrate: In 1.33× kinase buffer, the kinase and Z-LYTE™ Tyr 1 peptide substrate were diluted to 0.12 μg/mL and 4 μM, respectively, to prepare a mixture of kinase/peptide substrate. The mixture was mixed gently with a pipette.
4) A phosphorylated peptide substrate solution (PP solution): 0.4 μL of Z-LYTE™ Tyr1 phosphorylated peptide substrate was added to 99.6 μL of 1.33× kinase buffer.
5) ATP solution: 10 mM of ATP was diluted to 760 μM with 1.33× kinase buffer to prepare ATP solution.
6) Development solution: Development reagent B was diluted with Development buffer at a ratio of 1:200.
1) Kinase reaction (10 μL system)
2.5 μL of 4× test compound was added to each reaction well of the 384 plate, and the corresponding volume of 8% DMSO was added to the control well. The plate was placed on ice. 5 μL of a mixture of kinase/peptide substrate, 2.5 μL of kinase buffer and ATP solution were successively added to each well. Three control groups were set up: Group C1 contains only kinase buffer, group C2 contains the mixture of kinase/peptide substrate, kinase buffer and ATP, and group C3 contains 5 μL of PP solution. After adding the reaction components, the 384-well plate was sealed and incubated at 25-30° C. for 1 h in dark.
5 μL of Development solution was added to each well, sealed and incubated at 25-30° C. for another 1 h in dark.
3) Reaction stopping and plate reading
5 μL of stopping solution was added to each well. The Coumarin value (excitation at 400 nm, emission at 445 nm) and Fluorescein value (excitation at 400 nm, emission at 520 nm) were measured, respectively.
ER (emission ratio): Coumarin emission read-out (445 nm)/Fluorescein emission read-out (520 nm); • C3 445 nm: 100% phosphorylated Coumarin emission read-out; • C3 520 nm: 100% phosphorylated Fluorescein emission read-out; • C1 445 nm: 0% phosphorylated Coumarin emission read-out; • C1 520 nm: 0% phosphorylated Fluorescein emission read-out. Inhibition rate % (IR)=[1−% phosphorylation ratetest sample/100% phosphorylation ratecontrol]×100%
% phosphorylation ratetest sample: phosphorylation rate of the test compound; • 100% phosphorylation ratecontrol: phosphorylation rate of C3 control group.
5. IC50 values: calculated by using software XL-Fit™ (version 5.3) supplied by ID Business Solutions (Guildford, UK), which is an additional software to Microsoft Excel.

[2] = target: CSF1R phosphorylation in THP-1 cells (Homo sapiens (Human), UniProt P07333); experiment: Detection of CSF1R phosphorylation activity at cell level (THP-1, M-CSF stimulated, ELISA); assay type: cell-based; conditions: p-CSF1R ELISA, compound 60 min, 300 ng/mL M-CSF 1 min
Method: Detection of CSF1R Phosphorylation Activity at Cell Level
THP-1 (ATCC), human acute monocytic leukemia cells. The cells were cultured in an RPMI 1640 medium containing 10% FBS.
(§1) 2. Reagents and instruments
• Human phosphorylation-CSF1R ELISA kit: R&D, #DYC3268-2; • RPMI 1640 culture solution: GIBCO, 910491; • Human M-CSF recombinant cytokine: R&D, 9216-MC-500; • Cell lysis buffer: Cell Signal, 99803S; • 1×PBS buffer (1 L): 8.0 g of NaCl, 0.2 g of KCl, 3.58 g of Na2HPO4-12H2O, 0.24 g of KH2PO4 were dissolved in 1 L of dd H2O, and the pH was adjusted to 7.4; • Blocking solution: PBS buffer containing 1% BSA; • PBST washing liquid: PBS buffer containing 0.05% Tween-20; • Chromogenic substrate: R&D, #DY999; • 2N H2SO4; • Microwell plate reader: Labsystems Multiskan K3: Thermo; Envision: Perkin Elmer; • ELISA plate: Corning, #9018; • Cell culture plate: Facol, #353027. 3. Treatment of cells and preparation of lysis buffer
THP-1 cells were resuspended in RPMI-1640 culture solution containing 2% FBS, and the culture was added to a 96-well plate at a density of 5×10^4/well, 50 μL/well, and cultured in a cell incubator at 5% CO2 and 37° C. overnight; The test compound was diluted with a serum-free RPMI-1640 medium to 3, 1.1, 0.37, 0.12, 0.04, 0.014, 0.005 and 0.002 μM, and the concentration of DMSO was 5%. 5 μL of the diluted compound was added to the 50 μL cell culture system, the culture was cultured in a 5% CO2, 37° C. cell incubator for 60 min, 300 ng/mL of M-CSF was added to the cells, and the mixture was stimulated in the 37° C. cell incubator for 1 min, added 50 μL of cell lysis buffer, and stored in a refrigerator at −80° C.
100 μL/well of the p-CSF1R capture antibody diluted to 0.8 μg/mL with PBS was added to the ELISA plate, and the plate was coated on a shaker at room temperature overnight. The culture was washed with PBST, and then added blocking solution and incubated at room temperature for 2 h. The culture was washed with PBST, added 90 μL of cell lysis buffer, and incubated on a shaker at 25° C. for 2 h. The plate was washed with PBST three times, added 100 μL of anti-p-tyrosine-HRP detection antibody diluted with 0.1% PBS-BSA diluent, and incubated on a shaker at 25° C. for 2 h. The plate was washed with PBST washing liquid, added 100 μL of chromogenic substrate and incubated at room temperature for 10-20 min. The reaction was stopped by adding 50 μL of 2N H2SO4. The optical density signal (450/570 nm) of each well was detected in Labsystems Multiskan K3 or Envision.
wherein • Drug-treated well read-out: indicating the optical density signal of a cell well with the test compound treatment. • Background read-out: indicating the optical density signal of a well without cells but with cell lysis buffer. • Cell well read-out: indicating the optical density signal of a cell well not treated with the compound. 6. Calculation of IC50: obtained by using XL-Fit 5.3 software. 7. Test results

Ba/F3^BCR-FMS-11 cells = experiment: Cell proliferation experiment (Ba/F3^BCR-FMS-11, cckit-8); assay type: cell-based, mouse; conditions: Ba/F3^BCR-FMS-11 cell proliferation
Method: Cell Proliferation Experiment
Ba/F3^BCR-FMS-11, mouse primary B lymphocytes stably expressing the BCR-FMS fusion gene. The cells were cultured in an RPMI 1640 medium containing 10% FBS.
as §1
• cckit-8 kit: Dojindo, 9 CK04; • Envision: Perkin Elmer; • Cell culture plate: Facol, 9353027. 3. Experimental steps
The BCR-FMS fusion gene was transfected into Ba/F3 cells, and the cell line Ba/F3^BCR-FMS-11 that stably expresses BCR-FMS and grows depending on CSF-1R was screened. Ba/F3^BCR-FMS-11 cell proliferation experiments is completed by using the Cell Counting kit cckit-8 in a 96-well plate. In a 96-well plate, 5000/well of Ba/F3^BCR-FMS-11 cells were inoculated at 100 μL/well. […] 10 μL of the compound dilutions with the above 8 concentrations were added to the culture cell wells. The culture was incubated in a 37° C. and 5% CO2 cell incubator for 72 hours. 10 μL of Cell Counting kit cckit-8 detection reagent was added to each well, and incubated at 37° C. and 5% CO2 in a cell incubator for another 1 h. The optical density absorption value at 450 nm of each well was detected by using Perkin Elmer Envision instrument.
wherein • Drug-treated well read-out: indicating the optical density signal of a cell well with the test compound treatment. • Cell well read-out: indicating the optical density signal of a cell well not treated with the test compound (only 0.5% DMSO). • Background read-out: indicating the optical density signal of a well with the cell medium. 5. Calculation of IC50: obtained by using XL-Fit 5.3 software. 6. Test results

CSF1R phosphorylation in THP-1 cells, sequence (P07333 20-972): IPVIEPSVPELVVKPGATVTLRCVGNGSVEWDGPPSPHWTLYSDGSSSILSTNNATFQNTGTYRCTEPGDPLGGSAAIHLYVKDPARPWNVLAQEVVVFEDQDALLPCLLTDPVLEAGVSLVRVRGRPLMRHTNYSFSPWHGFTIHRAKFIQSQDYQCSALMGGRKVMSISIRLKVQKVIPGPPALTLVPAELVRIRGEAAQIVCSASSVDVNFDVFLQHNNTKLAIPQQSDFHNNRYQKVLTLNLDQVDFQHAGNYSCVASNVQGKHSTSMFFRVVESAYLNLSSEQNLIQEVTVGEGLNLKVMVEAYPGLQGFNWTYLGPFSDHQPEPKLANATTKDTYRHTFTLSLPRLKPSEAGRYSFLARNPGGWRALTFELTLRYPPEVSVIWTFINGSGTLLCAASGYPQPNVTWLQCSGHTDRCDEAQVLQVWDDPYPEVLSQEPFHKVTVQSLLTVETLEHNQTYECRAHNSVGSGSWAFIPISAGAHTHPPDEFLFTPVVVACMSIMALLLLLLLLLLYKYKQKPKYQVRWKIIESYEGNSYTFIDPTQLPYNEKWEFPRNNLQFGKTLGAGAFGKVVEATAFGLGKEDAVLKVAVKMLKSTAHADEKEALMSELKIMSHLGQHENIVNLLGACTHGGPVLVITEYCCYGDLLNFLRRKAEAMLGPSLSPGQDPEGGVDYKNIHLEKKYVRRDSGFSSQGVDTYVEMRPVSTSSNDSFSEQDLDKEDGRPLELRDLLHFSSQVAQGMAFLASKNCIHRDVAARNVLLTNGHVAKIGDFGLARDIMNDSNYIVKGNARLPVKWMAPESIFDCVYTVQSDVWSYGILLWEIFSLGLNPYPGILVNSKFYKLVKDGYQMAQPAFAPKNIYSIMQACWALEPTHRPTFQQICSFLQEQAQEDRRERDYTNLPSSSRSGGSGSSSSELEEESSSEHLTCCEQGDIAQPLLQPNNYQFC
Recombinant human CSF1R kinase, sequence (P07333 20-972): as above

| IC50 [1] | IC50 [2] | IC50 (Ba/F3^BCR-FMS-11 cells; Mus musculus, 72 h) | Compound | IC50 (Ba/F3^BCR-FMS-11 cells; 72 hours) |
| --- | --- | --- | --- | --- |
| 4 nM | 4 nM | 7 nM | Cc1ncc(C(=O)Nc2ccc(Oc3ccnc(-c4cnn(C)c4)c3)cn2)c(=O)n1C [Compound 8, 1,2-dimethyl-N-(5-((2-(1-methyl-1H-pyrazol-4-yl)pyridin-4-yl)oxy)pyridin-2-yl)-6-oxo-1,6-dihydropyrimidine-5-carboxamide] |  |
| 12 nM | 105 nM | 107 nM | Cn1cc(-c2cc(Oc3ccc(NC(=O)c4ccc[nH]c4=O)nc3)ccn2)cn1 [Compound 9, N-(5-((2-(1-methyl-1H-pyrazol-4-yl)pyridin-4-yl)oxy)pyridin-2-yl)-2-oxo-1,2-dihydropyridine-3-carboxamide] |  |
| 15 nM | 62 nM | 88 nM | Cn1cc(-c2cc(Oc3ccc(NC(=O)c4cncn(C)c4=O)nc3)ccn2)cn1 [Compound 10] |  |
| 5 nM | 6 nM | 6 nM | Cn1cc(-c2cc(Oc3ccc(NC(=O)c4cnc5n(c4=O)CCC5)nc3)ccn2)cn1 [Compound 11] |  |
| 9 nM | 143 nM | 66 nM | Cc1c(F)cc(C(=O)Nc2ccc(Oc3ccnc(-c4cnn(C)c4)c3)cn2)c(=O)n1C [Compound 12] |  |
| 91 nM | 42 nM | 231 nM | Cc1ncn(C)c(=O)c1C(=O)Nc1ccc(Oc2ccnc(-c3cnn(C)c3)c2)cn1 [Compound 13] |  |
| 88 nM | 20 nM | 45 nM | Cc1cnc(Nc2cc(Oc3ccc(NC(=O)c4cnc(C)n(C)c4=O)nc3)ccn2)s1 [Compound 16] |  |
| 13 nM | 60 nM | 57 nM | COc1cc(Oc2ccnc(-c3cnn(C)c3)c2)ccc1NC(=O)c1cccn(C(C)C)c1=O [Compound 18] |  |
| 8 nM | 109 nM | 44 nM | CC(C)n1cccc(C(=O)Nc2ccc(Oc3ccnc(-c4cnn(C)c4)c3)cc2F)c1=O [Compound 20] |  |
| 28 nM | 43 nM | 73 nM | Cn1cnc(-c2cc(Oc3cnc(NC(=O)c4cccn(C)c4=O)c(F)c3)ccn2)c1 [Compound 21] |  |
| 11 nM | 10 nM | 14 nM | Cn1cc(-c2cc(Oc3cnc(NC(=O)c4cccn(C)c4=O)c(F)c3)ccn2)cn1 [Compound 22] |  |
| 22 nM | 38 nM | 45 nM | Cc1ncc(C(=O)Nc2ncc(Oc3ccnc(-c4cnn(C)c4)c3)cc2F)c(=O)n1C [Compound 23] |  |
| 30 nM | 59 nM | 37 nM | Cc1cc(Oc2ccnc(-c3cnn(C)c3)c2)cnc1NC(=O)c1cccn(C(C)C)c1=O [Compound 24] |  |
| 16 nM | 38 nM | 66 nM | CC(C)n1cccc(C(=O)Nc2ncc(Oc3ccnc(-c4cnn(C)c4)c3)cc2C#N)c1=O [Compound 25] |  |
| 8 nM | 18 nM | 8 nM | Cn1cc(-c2cc(Oc3ccc(NC(=O)c4ccc5n(c4=O)CCC5)nc3)ccn2)cn1 [Compound 27] |  |
| 35 nM | 14 nM | 24 nM | Cc1ncc(C(=O)Nc2ccc(Oc3ccnc(-c4cn(C)cn4)c3)cn2)c(=O)n1C [Compound 30] |  |
| 59 nM | 15 nM | 99 nM | Cc1cn(-c2cc(Oc3ccc(NC(=O)c4cnc(C)n(C)c4=O)nc3)ccn2)cn1 [Compound 32] |  |

| IC50 [1] | IC50 [2] | IC50 (Ba/F3^BCR-FMS-11 cells; Mus musculus, 72 h) | Compound | IC50 (Ba/F3^BCR-FMS-11 cells; 72 hours) |
| --- | --- | --- | --- | --- |
| 62 nM | 15 nM | 58 nM | Cc1ncc(C(=O)Nc2ccc(Oc3ccnc(-c4cccnc4)c3)cn2)c(=O)n1C [Compound 33] |  |
| 79 nM | 24 nM | 125 nM | Cc1ncc(C(=O)Nc2ccc(Oc3ccnc(-c4ccccn4)c3)cn2)c(=O)n1C [Compound 34] |  |
| 28 nM | 8 nM |  | Cc1cccc(Nc2cc(Oc3ccc(NC(=O)c4cnc(C)n(C)c4=O)nc3)ccn2)n1 [Compound 36] | 23 nM |
| 12 nM | 7 nM | 17 nM | CCn1cc(-c2cc(Oc3ccc(NC(=O)c4cnc(C)n(C)c4=O)nc3)ccn2)cn1 [Compound 38] |  |
| 33 nM | 12 nM | 63 nM | Cc1ncc(C(=O)Nc2ccc(Oc3ccnc(-c4cnn(C(C)C)c4)c3)cn2)c(=O)n1C [Compound 39] |  |
| 27 nM | 19 nM | 52 nM | Cc1ncc(C(=O)Nc2ccc(Oc3ccnc(-c4ccncc4)c3)cn2)c(=O)n1C [Compound 41] |  |
| 5 nM | 6 nM | 6 nM | Cc1ncc(C(=O)Nc2ccc(Oc3ccnc(Nc4ccn(C)n4)c3)cn2)c(=O)n1C [Compound 42] |  |
| 6 nM | 6 nM | 5 nM | Cc1ncc(C(=O)Nc2ccc(Oc3ccnc(Nc4ccnn4C)c3)cn2)c(=O)n1C [Compound 43] |  |
| 7 nM | 3 nM | 6 nM | Cn1ccc(Nc2cc(Oc3ccc(NC(=O)c4cnc5n(c4=O)CCC5)nc3)ccn2)n1 [Compound 44] |  |
| 9 nM | 3 nM | 9 nM | Cn1cc(Nc2cc(Oc3ccc(NC(=O)c4cnc5n(c4=O)CCC5)nc3)ccn2)cn1 [Compound 45] |  |
| 12 nM | 9 nM | 20 nM | Cn1ccc(Nc2cc(Oc3ccc(NC(=O)c4cccn(C)c4=O)nc3)ccn2)n1 [Compound 46] |  |
| 5 nM | 3 nM | 6 nM | Cn1nccc1Nc1cc(Oc2ccc(NC(=O)c3cnc4n(c3=O)CCC4)nc2)ccn1 [Compound 47] |  |
| 5 nM | 5 nM | 5 nM | Cn1nccc1Nc1cc(Oc2ccc(NC(=O)c3cccn(C)c3=O)nc2)ccn1 [Compound 48] |  |
| 23 nM | 14 nM | 24 nM | Cc1ncc(C(=O)Nc2ccc(Oc3ccnc(-c4cnn(C(F)F)c4)c3)cn2)c(=O)n1C [Compound 49] |  |
| 78 nM | 54 nM | 112 nM | Cc1ncc(C(=O)Nc2ccc(Oc3ccnc(-c4ccc(F)cc4)c3)cn2)c(=O)n1C [Compound 50] |  |
| 56 nM | 67 nM | 97 nM | Cc1ncc(C(=O)Nc2ccc(Oc3ccnc(-c4ccccc4)c3)cn2)c(=O)n1C [Compound 51] |  |
| 3 nM | 7 nM | 5 nM | CCn1cccc(C(=O)Nc2ccc(Oc3ccnc(-c4cnn(C)c4)c3)cn2)c1=O [Compound 55] |  |

| Compound | IC50 [1] | IC50 [2] | IC50 (Ba/F3^BCR-FMS-11 cells; Mus musculus, 72 h) | IC50 (Ba/F3^BCR-FMS-11 cells; 72 hours) |
| --- | --- | --- | --- | --- |
| CC(C)n1cccc(C(=O)Nc2ccc(Oc3ccnc(-c4ncn(C)n4)c3)cn2)c1=O [Compound 15] | 34 nM | 215 nM |  | 493 nM |
